# Results published in PMC9503898, “Synthesis and Evaluation of Two Long-Acting SSTR2 Antagonists for Radionuclide Therapy of Neuroendocrine Tumors” (Pharmaceuticals, 2022).
# Positions of bridges follow the written chain, without caps; N, C: chain ends. Non-standard residues stand in square brackets, D forms with d. Residues, ends and D or L forms follow the SMILES beside them. *: point of attachment. DOTA = O=C(O)CN1CCN(CC(=O)O)CCN(CC(=O)*)CCN(CC(=O)O)CC1; dPhe(4-NHCONH2) = NC(=O)Nc1ccc(C[C@@H](N)C(=O)O)cc1; Butanoyl(4-(4-I-phenyl)) = O=C(CCCc1ccc(I)cc1)*; Dihydroorotyl(S) = O=C1C[C@@H](C(=O)*)NC(=O)N1; Phe(4-Cl) = N[C@@H](Cc1ccc(Cl)cc1)C(=O)O; Phe(4-NH2) = Nc1ccc(C[C@H](N)C(=O)O)cc1
# Legend:
# Ex vivo biodistribution = details: mouse, iv, 0.5 nmol, total radioactivity
# [1] = Determination of lipophilicity (LogD7.4, shake-flask); type: physicochemical; details: n-octanol/PBS (1:1), pH 7.4, PBS/n-octanol 1:1 (1 mL), ~1.5 MBq, gamma counter, n = 3 (triplicate), mean ± SEM, read-out: Log D7.4
# Method: The distribution coefficient (LogD7.4) of the ^177Lu-labeled peptides was determined by the shake-flask method. For each radioligand, the experiment was performed in triplicate. The radiolabeled compound (~1.5 MBq) was added to a solution of phosphate buffered saline (PBS)/n-octanol (1 mL, v:v = 1:1) in eppendorf vials. The vials were vortexed vigorously and centrifuged at 10,000 rpm for 3 min. The n-octanol phase was separated from the aqueous phase, poured into new vials, and centrifuged for 15 min. Samples from each phase (10 μL) were measured using a gamma counter. The LogD7.4 value was calculated using the following equation: […].
# Stability in PBS = type: physicochemical; details: % intact radiolabeled ligand, ~3 MBq in PBS (300 μL), 37 °C, radio-HPLC, n = 1
# Method: (§1) The ^177Lu-labeled compounds (~3 MBq) were incubated in PBS (300 μL) at 37 °C. The stability of the radiolabeled peptides was verified by radio-HPLC at 1, 4, and 24 h. The stability in serum was determined by incubating the radiolabeled compounds (~3 MBq) into 150 μL of mouse serum (Merck; Haarlerbergweg, The Netherlands) at 37 °C. At 1, 4, and 24 h post-incubation, the proteins were precipitated by adding an aliquot of 35 μL of the mixture to an equal volume of ACN. The vial was vortexed and centrifuged for 20 min. stability was monitored by radio-HPLC (Figures S4 and S5).
# human albumin = human albumin (Homo sapiens, UniProt P02768); test: Albumin binding properties (ultrafiltration); details: ~1 MBq in human albumin/PBS (500 µL, v:v = 1:4), 1 h, 37 °C; Centrifree ultrafiltration 30 KDa; gamma counter; n = 3, mean ± SEM
# Sequence of human albumin (P02768 25-609): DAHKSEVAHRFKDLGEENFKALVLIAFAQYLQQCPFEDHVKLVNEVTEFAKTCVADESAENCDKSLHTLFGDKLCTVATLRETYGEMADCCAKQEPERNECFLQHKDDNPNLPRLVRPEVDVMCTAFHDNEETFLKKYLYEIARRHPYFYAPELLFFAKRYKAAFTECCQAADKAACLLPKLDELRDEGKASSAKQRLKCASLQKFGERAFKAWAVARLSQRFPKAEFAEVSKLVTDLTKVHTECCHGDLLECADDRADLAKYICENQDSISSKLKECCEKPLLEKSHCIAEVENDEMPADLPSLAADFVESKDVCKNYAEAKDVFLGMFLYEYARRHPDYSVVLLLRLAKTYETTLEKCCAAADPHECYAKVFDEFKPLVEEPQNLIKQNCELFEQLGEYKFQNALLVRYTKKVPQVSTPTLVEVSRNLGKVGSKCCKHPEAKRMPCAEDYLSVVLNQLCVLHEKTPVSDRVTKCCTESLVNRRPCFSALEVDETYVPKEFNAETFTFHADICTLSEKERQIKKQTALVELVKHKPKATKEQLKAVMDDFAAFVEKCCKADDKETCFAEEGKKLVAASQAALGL
# Stability in mouse serum = type: in vitro ADME; details: % intact radiolabeled ligand, ~3 MBq in 150 μL mouse serum, 37 °C, ACN protein precipitation, radio-HPLC, n = 1
# Method: as §1
# [2] = system: mice bearing SSTR2-positive H69 xenografts; test: In vivo SPECT/CT imaging; details: H69 xenograft mice, i.v. 20 MBq/0.5 nmol, n = 4
# In vivo SPECT/CT imaging = details: mouse, H69 xenograft tumor, iv, 20 MBq/0.5 nmol per animal, total radioactivity
smiles,measurement,setting,value
"C[C@@H](O)[C@@H]1NC(=O)[C@H](CCCCN)NC(=O)[C@@H](Cc2ccc(NC(N)=O)cc2)NC(=O)[C@H](Cc2ccc(NC(=O)[C@@H]3CC(=O)NC(=O)N3)cc2)NC(=O)[C@H](NC(=O)[C@H](Cc2ccc(Cl)cc2)NC(=O)[C@H](CCCCNC(=O)CCCc2ccc(I)cc2)NC(=O)CN2CCN(CC(=O)O)CCN(CC(=O)O)CCN(CC(=O)O)CC2)CSSC[C@@H](C(=O)N[C@H](Cc2ccc(O)cc2)C(N)=O)NC1=O [[^177Lu]Lu-8a, metal not drawn] ({DOTA}-K(Butanoyl(4-(4-I-phenyl)))[Phe(4-Cl)][dC][Phe(4-NH2)](Dihydroorotyl(S))[dPhe(4-NHCONH2)]KTC[dY]-NH2; disulfide 3-8)",tissue uptake at 4 h,Ex vivo biodistribution; blood,21.3 ± 1.1 %ID/g
same,tissue uptake at 24 h,Ex vivo biodistribution; blood,18.1 ± 4.2 %ID/g
same,tissue uptake at 48 h,Ex vivo biodistribution; blood,12.9 ± 1.2 %ID/g
same,tissue uptake at 72 h,Ex vivo biodistribution; blood,8.6 ± 0.5 %ID/g
same,tissue uptake at 4 h,Ex vivo biodistribution; bone marrow,1.2 ± 2 %ID/g
same,tissue uptake at 4 h,Ex vivo biodistribution; bone,1.3 ± 1.8 %ID/g
same,tissue uptake at 24 h,Ex vivo biodistribution; bone,1.5 ± 1.1 %ID/g
same,tissue uptake at 48 h,Ex vivo biodistribution; bone,0.9 ± 0.4 %ID/g
same,tissue uptake at 72 h,Ex vivo biodistribution; bone,1.2 ± 1 %ID/g
same,tissue uptake at 4 h,Ex vivo biodistribution; heart,7.6 ± 1.2 %ID/g
same,tissue uptake at 24 h,Ex vivo biodistribution; heart,5.1 ± 0.7 %ID/g
same,tissue uptake at 48 h,Ex vivo biodistribution; heart,4.8 ± 0.5 %ID/g
same,tissue uptake at 72 h,Ex vivo biodistribution; heart,3.9 ± 0.7 %ID/g
same,tissue uptake at 4 h,Ex vivo biodistribution; intestine,2.5 ± 0.2 %ID/g
same,tissue uptake at 24 h,Ex vivo biodistribution; intestine,1.7 ± 0.1 %ID/g
same,tissue uptake at 48 h,Ex vivo biodistribution; intestine,1.4 ± 0.1 %ID/g
same,tissue uptake at 72 h,Ex vivo biodistribution; intestine,1.1 %ID/g
same,tissue uptake at 4 h,Ex vivo biodistribution; kidney,9.6 ± 1.2 %ID/g
same,tissue uptake at 24 h,Ex vivo biodistribution; kidney,18.4 ± 1.9 %ID/g
same,tissue uptake at 48 h,Ex vivo biodistribution; kidney,22.6 ± 1.9 %ID/g
same,tissue uptake at 72 h,Ex vivo biodistribution; kidney,21.6 ± 1.4 %ID/g
same,tissue uptake at 4 h,Ex vivo biodistribution; liver,4.6 ± 1.2 %ID/g
same,tissue uptake at 24 h,Ex vivo biodistribution; liver,3.7 ± 0.2 %ID/g
same,tissue uptake at 48 h,Ex vivo biodistribution; liver,3.6 ± 0.2 %ID/g
same,tissue uptake at 72 h,Ex vivo biodistribution; liver,2.9 ± 0.3 %ID/g
same,tissue uptake at 4 h,Ex vivo biodistribution; lung,9.9 ± 2.9 %ID/g
same,tissue uptake at 24 h,Ex vivo biodistribution; lung,7.5 ± 0.6 %ID/g
same,tissue uptake at 48 h,Ex vivo biodistribution; lung,7.2 ± 0.3 %ID/g
same,tissue uptake at 72 h,Ex vivo biodistribution; lung,6 ± 0.5 %ID/g
same,tissue uptake at 4 h,Ex vivo biodistribution; muscle,0.8 ± 1.1 %ID/g
same,tissue uptake at 24 h,Ex vivo biodistribution; muscle,1.1 ± 0.1 %ID/g
same,tissue uptake at 48 h,Ex vivo biodistribution; muscle,1.2 ± 0.5 %ID/g
same,tissue uptake at 72 h,Ex vivo biodistribution; muscle,0.8 ± 0.1 %ID/g
same,tissue uptake at 4 h,Ex vivo biodistribution; pancreas,7.2 ± 0.3 %ID/g
same,tissue uptake at 24 h,Ex vivo biodistribution; pancreas,6.6 ± 0.3 %ID/g
same,tissue uptake at 48 h,Ex vivo biodistribution; pancreas,6.3 ± 0.7 %ID/g
same,tissue uptake at 72 h,Ex vivo biodistribution; pancreas,5.3 ± 1.2 %ID/g
same,tissue uptake at 4 h,Ex vivo biodistribution; skin,5.9 ± 1.1 %ID/g
same,tissue uptake at 24 h,Ex vivo biodistribution; skin,5.4 ± 0.9 %ID/g
same,tissue uptake at 48 h,Ex vivo biodistribution; skin,6.3 ± 1.6 %ID/g
same,tissue uptake at 72 h,Ex vivo biodistribution; skin,4.8 ± 0.3 %ID/g
same,tissue uptake at 4 h,Ex vivo biodistribution; spleen,3.2 ± 0.7 %ID/g
same,tissue uptake at 24 h,Ex vivo biodistribution; spleen,3.8 ± 0.4 %ID/g
same,tissue uptake at 48 h,Ex vivo biodistribution; spleen,5.8 ± 0.6 %ID/g
same,tissue uptake at 72 h,Ex vivo biodistribution; spleen,5.4 ± 0.2 %ID/g
same,tissue uptake at 4 h,Ex vivo biodistribution; stomach,3.8 ± 0.4 %ID/g
same,tissue uptake at 24 h,Ex vivo biodistribution; stomach,3.1 ± 1.4 %ID/g
same,tissue uptake at 48 h,Ex vivo biodistribution; stomach,3.3 ± 1.2 %ID/g
same,tissue uptake at 72 h,Ex vivo biodistribution; stomach,3 ± 0.5 %ID/g
same,tissue uptake at 4 h,Ex vivo biodistribution; tumor,4.1 ± 0.5 %ID/g
same,tissue uptake at 24 h,Ex vivo biodistribution; tumor,6.5 ± 0.2 %ID/g
same,tissue uptake at 48 h,Ex vivo biodistribution; tumor,7.3 ± 0.4 %ID/g
same,tissue uptake at 72 h,Ex vivo biodistribution; tumor,7.3 ± 0.9 %ID/g
same,logD,[1],-1.6 ± 0.03
same,Stability in PBS (%) 1 h,Stability in PBS; 1 h,96.5%
same,Stability in PBS (%) 4 h,Stability in PBS; 4 h,96.5%
same,Stability in PBS (%) 24 h,Stability in PBS; 24 h,97.2%
same,Protein-Bound Fraction (%),human albumin,89.5 ± 0.8%
same,remaining at 1 h,Stability in mouse serum; 1 h,97.3%
same,remaining at 4 h,Stability in mouse serum; 4 h,98.4%
same,remaining at 24 h,Stability in mouse serum; 24 h,98.5%
same,"SPECT quantification, kidneys (K), 4 h",[2]; 4 h post-injection,7.7 ± 0.9 % ID/mL
same,"SPECT quantification, kidneys (K), 24 h",[2]; 24 h post-injection,10.1 ± 0.8 % ID/mL
same,"SPECT quantification, kidneys (K), 48 h",[2]; 48 h post-injection,10.1 ± 0.3 % ID/mL
same,"SPECT quantification, kidneys (K), 72 h",[2]; 72 h post-injection,8.9 ± 0.2 % ID/mL
same,tissue uptake per volume at 4 h,In vivo SPECT/CT imaging,3.7 ± 0.9 %ID/mL
same,tissue uptake per volume at 24 h,In vivo SPECT/CT imaging,4.9 ± 0.5 %ID/mL
same,tissue uptake per volume at 48 h,In vivo SPECT/CT imaging,5.7 ± 0.6 %ID/mL
same,tissue uptake per volume at 72 h,In vivo SPECT/CT imaging,4.9 ± 0.3 %ID/mL
